Results as given in PMC3366986, “On the Mechanism of Action of SJ-172550 in Inhibiting the Interaction of MDM4 and p53” (PLoS ONE, 2012).
Converted amounts (≈) assume the structure as drawn. Values belong to the compound of their own block, whether it stands above or below them.

Experiments:
MDMX (23–111) = target: T1, MDMX (23–111) (Homo sapiens, UniProt O15151); assay: thermal stability of MDMX by hydrophobic dye binding (thermal shift); details: for effect of reducing agent used alone on thermal stability of MDMX: without compound 1
T1 construct: Thermal shift data for MDMX (23–111) showing a 7 degree stabilization; made in house; host or cells: E. coli BL21(DE3)
T1 sequence (O15151 23-111): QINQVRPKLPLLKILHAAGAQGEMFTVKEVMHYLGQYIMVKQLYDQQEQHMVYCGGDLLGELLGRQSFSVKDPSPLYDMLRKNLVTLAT
Method: The ITD measurements were performed with a RT-PCR instrument (Applied Biosystems 7900HT) equipped with a 384-well probe using SYBR detection (excitation 495/emission 537). The program used started at 45°C and the temperature increased at a rate of 1 degree per minute. […] The final volume was 20 µl for each well using 384 ABI PRISM™ plates (Applied Biosystems). The data was exported and evaluated using a custom data processing algorithm coded in Pipeline Pilot (Scitegic). Apparent melting temperatures were calculated by measuring the temperature at which the observed fluorescence signal was halfway between the baseline and the maximum. Binding curves were determined by graphing observed apparent melting temperature as a function of test compound concentrations. These curves were then fit to a four parameter sigmoidal dose response model using PRISM 5.0 (GraphPad Software, Inc.).

[1] = target: T2, hMDMX (GST-tagged, a.a. 1–185) (Homo sapiens, UniProt O15151); assay: fluorescence polarization competition assay, MDMX-p53 peptide binding; details: for IC50: Figure 3, read-out: IC50, inhibition of MDMX-p53 peptide binding
T2 construct: hMDMX (GST-tagged, a.a. 1–185); made in house; host or cells: E. coli BL21(DE3)
T2 sequence (O15151 1-185): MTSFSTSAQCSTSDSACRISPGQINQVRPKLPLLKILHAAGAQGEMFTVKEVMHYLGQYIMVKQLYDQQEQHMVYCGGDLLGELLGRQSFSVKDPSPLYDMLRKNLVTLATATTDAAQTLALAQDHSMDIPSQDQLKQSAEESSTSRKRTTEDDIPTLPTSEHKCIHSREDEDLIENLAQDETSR
Method: All fluorescence polarization assays were performed in binding buffer (10 mM Tris, pH 8.0, 170 mM NaCl, 0.05% Tween-20) unless otherwise noted. For competition assays a master mix of 15 nM Texas red-labeled (N-terminal label) P53 Peptide (sequence: […]) with 1 µM hMDMX (GST-tagged, a.a. 1–185) was prepared and 20 µl was added to black polystyrene 384 well plates (Corning #3573). DMSO stock solutions of test compounds were then added by pin transfer (V&P scientific) in nano-liter volumes (maximum final DMSO percentage = 1%). The assay mixture was incubated at room temperature for one hour and read on an EnVision multi-label plate reader using a 555 nm excitation filter, a 632 nm emission filter, and a Texas Red FP dichroic mirror. Binding inhibition curves and IC50 values were determined by fitting observed mP values to a 4-parameter sigmoidal binding curve using PRISM 5.0 (GraphPad Software, Inc.).

MDMX [2] = target: T3, MDMX (Homo sapiens, UniProt O15151); assay: fluorescence polarization p53 peptide exclusion assay, Mdmx; assay type: binding; details: ND = compound does not noticeably block interaction with p53 peptide
T3 sequence (O15151 1-490): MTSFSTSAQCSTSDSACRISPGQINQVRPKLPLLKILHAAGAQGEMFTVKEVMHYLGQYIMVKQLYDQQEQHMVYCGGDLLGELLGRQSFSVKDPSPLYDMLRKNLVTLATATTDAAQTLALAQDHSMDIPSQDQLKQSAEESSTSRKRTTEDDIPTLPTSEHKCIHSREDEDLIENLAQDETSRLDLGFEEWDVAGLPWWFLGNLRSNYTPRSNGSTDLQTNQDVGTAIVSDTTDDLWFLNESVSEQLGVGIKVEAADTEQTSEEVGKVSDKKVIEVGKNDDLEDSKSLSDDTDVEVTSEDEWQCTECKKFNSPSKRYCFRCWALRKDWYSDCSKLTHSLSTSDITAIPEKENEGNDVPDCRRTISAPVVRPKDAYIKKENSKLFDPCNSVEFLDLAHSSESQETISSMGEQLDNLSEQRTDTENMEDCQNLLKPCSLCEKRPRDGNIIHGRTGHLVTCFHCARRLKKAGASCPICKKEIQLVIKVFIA
Description: (§1) the α,β-unsaturated amide towards Mdm2 and Mdmx as determined using fluorescence
(§2) polarization p53 peptide exclusion assay. Compound core according to J. Biol. Chem. 2010;
(§3) 285: 10786 is marked in blue.
(§4) Compound Chemical formula Compound code Mdm2 MdmX […]

Mdm2 = Mdm2 (Homo sapiens, UniProt Q00987); assay: fluorescence polarization p53 peptide exclusion assay, Mdm2; assay type: binding; details: ND = compound does not noticeably block interaction with p53 peptide
Description: as §1, §2, §3, §4

[3] = solubility assay (µSOL Evolution, pION); assay type: physicochemical; details: system solution buffer (SSB, pION), pH 7.4, aqueous buffer, kinetic from dmso stock
Method: Solubility assay was carried out on Biomek FX lab automation workstation (Beckman Coulter, Inc., Fullerton, CA) using µSOL Evolution software (pION Inc., Woburn, MA). The detailed method is described as following. 10 µL of 10 mM compound stock (in DMSO) was added to 190 µL 1-propanol to make a reference stock plate. 5 µL from this reference stock plate was mixed with 70 µL 1-propanol and 75 µL SSB (system solution buffer, pH adjusted to 7.4, pION Inc., Woburn, MA) to make the reference plate, and the UV spectrum (250 nm –500 nm) of the reference plate was read. 6 µL of 10 mM test compound stock was added to 594 µL SSB in a 96-well storage plate and mixed. The storage plate was sealed and incubated at room temperature for 18 hours. The suspension was then filtered through a 96-well filter plate (pION Inc., Woburn, MA). 75 µL filtrate was mixed with 75 µL 1-propanol to make the sample plate, and the UV spectrum of the sample plate was read. Calculation was carried out by µSOL Evolution software based on the AUC (area under curve) of UV spectrum of the sample plate and the reference plate. All compounds were tested in triplicates.

retinoblastoma cells = system: retinoblastoma cells; set-up: method as in PMID 20080970; details: cited from earlier work
MDMX [4] = target: T3, MDMX; set-up: method as in PMID 20080970; details: inhibition of the MDMX-p53 interaction; read-out: EC50, competition for wild type p53 peptide binding to MDMX; cited from earlier work
[5] = target: T4, hMDMX (untagged aa 23 to 111 construct) (Homo sapiens, UniProt O15151); assay: mass spectrometry of covalent adducts, untagged hMDMX
T4 construct: hMDMX (untagged aa 23 to 111 construct); His-tag (cleaved yes); made in house; host or cells: E. coli BL21(DE3)
T4 sequence (O15151 23-111): T1 sequence (O15151 23-111)
Method: (§5) Samples were prepared in binding buffer (10 mM Tris, pH 8.0, 170 mM NaCl) with a 50 µl final volume. Samples were incubated at room temperature for 1.5 hours after which they were stored overnight at 4°C before analysis by mass spectrometry. Samples containing 1 µM hMDMX constructs were concentrated to 20 µM using 3000 MWCO centrifugal protein concentrators (Vivascience, Inc.) immediately prior to analysis. Prior to injection all samples were desalted using a reverse phase C8 Zip Tip (Millipore) and eluted in 50% acetonitrile, 2% formic acid. The samples were ionized by static nanospray using EconoTips (New Objective) on a Waters LCT Premier XE mass spectrometer using positive mode. The resultant charge envelope was deconvoluted using MaxEnt 1 algorithm of MassLynx V 4.0 sp 4 software. A mass error of 1Da for every 10,000 Da is permissible using this mass spectrometer.

C77A mutant of MDM2 = C77A mutant of MDM2 (Homo sapiens, UniProt Q00987, C77A); assay: covalent labelling of MDM2 C77A mutant; details: C77A mutation; Figure S6
GST-hMDMX = target: T5, GST-hMDMX (Homo sapiens, UniProt O15151); assay: mass spectrometry of covalent adducts, GST-tagged hMDMX
T5 construct: made in house; host or cells: E. coli BL21(DE3)
T5 sequence (O15151 1-185): T2 sequence (O15151 1-185)
Method: as §5

hMDM2(18–125)C77V = target: T6, hMDM2(18–125)C77V (Homo sapiens, UniProt Q00987, C77V); assay: inhibition of p53 peptide binding to MDM2 cysteine mutant; details: hMDM2(18–125)C77V relative to MDM2; Figure S6
T6 construct: a mutant of MDM2 protein (hMDM2(18–125)C77V) lacking the cysteine

hMDMX (aa 23–111) = target: T7, hMDMX (aa 23–111) (Homo sapiens, UniProt O15151); assay: SPR binding of compound 1 to immobilized hMDMX; details: 100 µM
T7 construct: hMDMX (23–111) was immobilized to the SPR chips using a biotin tag; made in house
T7 sequence (O15151 23-111): T1 sequence (O15151 23-111)
Method: Binding studies were performed at 25°C using a Biacore T100 (GE Healthcare) surface plasmon resonance (SPR) instrument. Either streptavidin or NeutrAvidin (Thermo Scientific) was immobilized on a carboxymethyldextran-coated gold surface (CM5 chip; GE Healthcare) by standard amine coupling methods. The carboxymethyl groups of dextran were activated with N-ethyl-N ´-(3-dimethylaminopropyl) carbodiimide (EDC) and N-hydroxysuccinimide (NHS). For peptide experiments, streptavidin was attached at pH 4.5 in 10 mM sodium acetate to levels of ∼3000 RU per flow cell. For small molecule experiments, NeutrAvidin was attached at pH 5.0 in 10 mM sodium acetate to levels of ∼11000–12000 RU per flow cell. Any remaining reactive sites were blocked by reaction with ethanolamine. Biotin-MDM4 was captured on the chip by injection over the streptavidin or NeutrAvidin surface.
For peptide binding experiments, p53wt peptide was prepared as a 3-fold serial dilution in peptide binding buffer (20 mM Bis-Tris pH 6.5, 200 mM NaCl, 0.1 mg/mL bovine serum albumin, 0.005% Tween20, +/−1 mM TCEP). The peptide was injected in triplicate at each concentration at a flow rate of 75 µL/min. […] Equilibrium dissociation constants (K d) for peptide binding were determined by equilibrium affinity analysis with a 1∶1 binding model using Scrubber2.

T6 sequence (Q00987 18-125 C77V): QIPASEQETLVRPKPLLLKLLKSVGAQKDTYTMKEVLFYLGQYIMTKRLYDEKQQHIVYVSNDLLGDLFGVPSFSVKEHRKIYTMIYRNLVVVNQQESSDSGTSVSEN
Chain of Mdm2 (Q00987 whole entry): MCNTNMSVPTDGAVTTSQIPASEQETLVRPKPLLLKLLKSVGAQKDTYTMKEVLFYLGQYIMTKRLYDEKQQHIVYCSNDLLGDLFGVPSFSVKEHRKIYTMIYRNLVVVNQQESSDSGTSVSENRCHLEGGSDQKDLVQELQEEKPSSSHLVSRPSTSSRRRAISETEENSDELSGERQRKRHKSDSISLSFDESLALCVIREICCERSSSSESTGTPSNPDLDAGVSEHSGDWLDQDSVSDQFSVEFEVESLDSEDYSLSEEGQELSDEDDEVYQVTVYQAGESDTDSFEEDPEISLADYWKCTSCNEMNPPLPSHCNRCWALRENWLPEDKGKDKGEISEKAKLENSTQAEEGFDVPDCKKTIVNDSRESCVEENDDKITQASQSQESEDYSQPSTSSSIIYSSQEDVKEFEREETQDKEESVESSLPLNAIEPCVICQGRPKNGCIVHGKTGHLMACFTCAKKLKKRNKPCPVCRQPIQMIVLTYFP
Chain of C77A mutant of MDM2 (Q00987 whole entry C77A): as the sequence (Q00987 whole entry) above, with C77A counted along it

IC50 [1]: > 100 µM | reduction of inhibitory potency by saturation of the ene-amide group ([1]; compound 2 relative to compound 1): roughly 30 fold
SMILES: CCOc1cc(CC2C(=O)N(c3ccccc3)N=C2C)cc(Cl)c1OCC(=O)OC (centres unmarked) [compound 2]

Ki (MDMX [2]): 8.07 µM | Ki (Mdm2): 5.21 µM | stabilization of the protein's melting point (MDMX (23–111); addition of compound 1): 7 degree | EC50 (MDMX (23–111); minimal time dependency (5 min vs 1 h), read-out: apparent EC50 of melting point stabilization): ~1 µM | solubility at 18 h [3]: 12 µM (≈ 5.15 µg/mL) | covalent adduct formation (mass spectrum) ([5]; 1 µM hMDMX, 5 µM compound): no alkylation | covalent adduct formation (mass spectrum) ([5]; 20 µM hMDMX, 100 µM compound): partial alkylation | ability to covalently label MDM2 (C77A mutant of MDM2): abolishes | covalent adduct formation (mass spectrum) (GST-hMDMX; 1 µM GST-hMDMX, 5 µM compound): no alkylation events | covalent adduct formation (mass spectrum) (GST-hMDMX; 20 µM GST-hMDMX, 100 µM compound): multiple alkylation events | weaker potency on cysteine-lacking mutant than on MDM2 (hMDM2(18–125)C77V): 10 fold | time to return to baseline after the pulse (off rate) (hMDMX (aa 23–111); non-reducing conditions): ~5 min | SPR binding (hMDMX (aa 23–111); reducing conditions (TCEP)): no binding was observed | IC50 [1]: 3 µM | reduction of potency after reaction with glutathione in situ ([1]; Figure S5, efficacy not completely removed): 10 fold
SMILES: CCOc1cc(/C=C2\C(=O)N(c3ccccc3)N=C2C)cc(Cl)c1OCC(=O)OC [compound 1]
p53 dependent cell death of retinoblastoma cells (retinoblastoma cells): caused p53 dependent cell death of retinoblastoma cells | EC50 (MDMX [4]): ~5 µM

The next lines start with the compound.

SMILES: O=C(O)c1cc(SSc2ccc([N+](=O)[O-])c(C(=O)O)c2)ccc1[N+](=O)[O-] [DTNB, reference compound]
effect on melting point of MDMX (MDMX (23–111); MDMX treated with Ellman's reagent, Figure S4): partially stabilized | ability of treated MDMX to bind p53 peptide ([1]; MDMX treated with Ellman's reagent, Figure S3): unable to bind p53 peptide

SMILES: O[C@@H](CS)[C@@H](O)CS [DTT]
effect of reducing agent used alone on thermal stability of MDMX (MDMX (23–111)): no apparent effect

SMILES: O=C(O)CCP(CCC(=O)O)CCC(=O)O [TCEP]
effect of reducing agent used alone on thermal stability of MDMX (MDMX (23–111)): destabilized the protein at high concentrations
